GI50 and TGI data for 6 molecules are collected here from PubChem BioAssay (NCI).

The structures appear in SMILES notation.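 Grown in 96-well plates, cells were treated for 48 hours with each compound at five concentrations. Insufficient inhibition: endpoint recorded as highest concentration tested. The concentration for 50% growth inhibition is given as GI50. At the TGI there is no net growth.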

Some test systems named below: A498 renal; COLO 205 colon; DU-145 prostate; LOX IMVI melanoma; M14 melanoma; NCI/ADR-RES ovarian; OVCAR-8 ovarian; SF-268 CNS; SK-OV-3 ovarian; UO-31 renal.
Holding throughout (assay): growth of human tumour cells (NCI), 48 h

As for `COc1cc(C(=O)O)ccc1NC(=O)[C@@H]1N[C@@H](CC(C)(C)C)[C@](C#N)(c2ccc(Cl)cc2F)[C@H]1c1cccc(Cl)c1F`, the GI50 was 0.132 µM in the assay on A498 renal; 3.1 µM with COLO 205 colon; 5.24 µM in the assay with DU-145 prostate; 0.148 µM in the assay on LOX IMVI melanoma; 3.18 µM in the assay on M14 melanoma; 6.83 µM with NCI/ADR-RES ovarian. Besides, the GI50 with OVCAR-8 ovarian is 4.08 µM; with SF-268 CNS, 4.62 µM; in the assay on SK-OV-3 ovarian it was 7.02 µM; in the assay with UO-31 renal, 0.0414 µM. The TGI with A498 renal was 2.79 µM; in the assay with COLO 205 colon, 12 µM; in the assay on DU-145 prostate it was 30.4 µM; in the assay with LOX IMVI melanoma it was 6.84 µM; in the assay on M14 melanoma it was over 30.1 µM; in the assay on NCI/ADR-RES ovarian it was 25.2 µM. For the same molecule, the TGI in the assay on OVCAR-8 ovarian was 23 µM; in the assay with SF-268 CNS, 30.5 µM; in the assay with SK-OV-3 ovarian, 21.3 µM; in the assay on UO-31 renal it was 5.03 µM.
For the molecule `COc1cc2c3c(n(CCCn4ccnc4)c(=O)c2cc1OC)-c1ccccc1C3=O`, the GI50 with A498 renal is 0.0449 µM; in the assay with COLO 205 colon, 0.0979 µM; with DU-145 prostate, under 0.0209 µM; in the assay with LOX IMVI melanoma, under 0.0124 µM; in the assay on M14 melanoma, under 0.0171 µM; in the assay on NCI/ADR-RES ovarian, 0.223 µM. The GI50 with OVCAR-8 ovarian was 0.0584 µM; in the assay on SF-268 CNS, under 0.0423 µM; in the assay on SK-OV-3 ovarian, 1.13 µM; in the assay on UO-31 renal, under 0.0141 µM. Besides, the TGI was 0.292 µM in the assay with A498 renal; 0.0385 µM in the assay with LOX IMVI melanoma; 0.116 µM in the assay on M14 melanoma; 1.86 µM with NCI/ADR-RES ovarian; 4.84 µM with OVCAR-8 ovarian; over 100 µM in the assay on SF-268 CNS. In the assay with UO-31 renal, this molecule returned a TGI of 0.0551 µM.
For the molecule `COc1ccc(C(=O)c2ccc(OC)cc2OC)cc1`, the GI50 is 5.87 µM in the assay with A498 renal; 1.65 µM in the assay on COLO 205 colon; 3.52 µM in the assay with DU-145 prostate; 4.47 µM with LOX IMVI melanoma; 2.47 µM with M14 melanoma; 1.59 µM in the assay on NCI/ADR-RES ovarian. In addition, the GI50 in the assay with OVCAR-8 ovarian is 4.55 µM; in the assay with SF-268 CNS, 7.57 µM; with SK-OV-3 ovarian, 2.66 µM; in the assay on UO-31 renal, 2.7 µM. In addition, the TGI in the assay on A498 renal was over 100 µM; with COLO 205 colon it was 3.51 µM; in the assay on DU-145 prostate it was 25.6 µM; with LOX IMVI melanoma, over 100 µM; in the assay with M14 melanoma, over 100 µM; in the assay with NCI/ADR-RES ovarian it was 5.98 µM. Moreover, the TGI with OVCAR-8 ovarian is over 100 µM; in the assay on SF-268 CNS, over 100 µM; with SK-OV-3 ovarian, 8.81 µM; in the assay on UO-31 renal, 39.6 µM.
`N#Cc1c(SCc2ccccc2)nc2[nH]c(=S)[nH]c(=S)c2c1-c1ccco1`: the GI50 was 55.3 µM with A498 renal; 41.2 µM in the assay with COLO 205 colon; 54 µM in the assay on DU-145 prostate; over 100 µM in the assay on LOX IMVI melanoma; over 100 µM with M14 melanoma; 26.6 µM in the assay on NCI/ADR-RES ovarian. Also, the GI50 in the assay on OVCAR-8 ovarian is 67.9 µM; with SF-268 CNS, 32.4 µM; in the assay on SK-OV-3 ovarian, over 100 µM; in the assay on UO-31 renal it was 61.2 µM. Also, the TGI in the assay with A498 renal, with COLO 205 colon, in the assay on DU-145 prostate, with LOX IMVI melanoma, in the assay with M14 melanoma and in the assay with NCI/ADR-RES ovarian was over 100 µM each time. Also, the TGI in the assay with OVCAR-8 ovarian, with SF-268 CNS, with SK-OV-3 ovarian and in the assay with UO-31 renal was over 100 µM throughout.
`O=[N+]([O-])c1ccccc1/C=C/C=C1c2ccccc2-c2ccccc21`: the GI50 in the assay with A498 renal, in the assay with COLO 205 colon, in the assay with DU-145 prostate, in the assay with LOX IMVI melanoma, in the assay with M14 melanoma and in the assay on NCI/ADR-RES ovarian was over 100 µM each time. The GI50 in the assay on OVCAR-8 ovarian, in the assay on SF-268 CNS, in the assay with SK-OV-3 ovarian and with UO-31 renal was over 100 µM throughout. Further, the TGI in the assay on A498 renal, in the assay with COLO 205 colon, in the assay with DU-145 prostate, with LOX IMVI melanoma, in the assay with M14 melanoma and with NCI/ADR-RES ovarian was over 100 µM in each case. For the same molecule, the TGI with OVCAR-8 ovarian, with SF-268 CNS, in the assay with SK-OV-3 ovarian and in the assay on UO-31 renal was over 100 µM in each case.
On to `COc1ccc(/C(Cl)=C(\C=O)c2cc(OC)c(OC)c(OC)c2)cc1OC`, for which the TGI is over 90.3 µM with A498 renal; over 100 µM in the assay with COLO 205 colon; over 100 µM in the assay on DU-145 prostate; over 100 µM in the assay on LOX IMVI melanoma; over 100 µM with M14 melanoma; 40.2 µM with NCI/ADR-RES ovarian. Also, the TGI in the assay on OVCAR-8 ovarian was over 63.5 µM; with SF-268 CNS, over 100 µM; in the assay on SK-OV-3 ovarian it was over 100 µM; with UO-31 renal it was over 100 µM.
